Reference: patent US8853420B2, “Compounds” (Boehringer Ingelheim International GmbH, priority 2008, dated 2014)

The compounds below were run against T1, Xenopus laevis Aurora B/INCENP complex (Xenopus laevis, UniProt Q6DE08) (assay: Aurora-B kinase assay (radioactive enzyme inhibition assay)). Conditions: test substance at 1 μM; percentage of the positive control (maximum value without test substance).
T1 construct: equipped at the N-terminal position with a GST tag (amino acids 60-361); GST (N, cleaved yes); made in house; host or cells: E. coli BL21 (DE3)
T1 sequence (Q6DE08 60-361): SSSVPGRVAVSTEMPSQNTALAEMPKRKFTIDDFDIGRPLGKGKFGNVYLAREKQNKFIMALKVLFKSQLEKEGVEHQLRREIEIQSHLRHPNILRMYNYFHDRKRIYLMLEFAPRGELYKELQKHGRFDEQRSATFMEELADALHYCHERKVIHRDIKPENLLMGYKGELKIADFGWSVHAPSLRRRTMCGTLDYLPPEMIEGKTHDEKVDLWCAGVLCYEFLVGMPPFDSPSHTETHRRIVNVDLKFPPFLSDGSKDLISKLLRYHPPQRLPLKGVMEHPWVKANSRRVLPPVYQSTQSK
T1 sequence (O13024 790-847 partner limits assumed): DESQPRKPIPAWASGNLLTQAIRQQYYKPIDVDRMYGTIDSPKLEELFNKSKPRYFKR
Assay type: biochemical
Source text: Example Aurora-B Kinase Assay
A radioactive enzyme inhibition assay was developed using E. coli-expressed recombinant Xenopus laevis Aurora B wild-type protein equipped at the N-terminal position with a GST tag (amino acids 60-361) in a complex with Xenopus laevis INCENP (amino acids 790-847), which is obtained from bacteria and purified. In equivalent manner a Xenopus laevis Aurora B mutant (G96V) in a complex with Xenopus laevis INCENP^790-847 may also be used.
Expression and Purification
The coding sequence for Aurora-B^60-361 from Xenopus laevis is cloned into a modified version of pGEX-6T (Amersham Biotech) via BamHI and SalI cutting sites. The vector contains two cloning cassettes which are separated by a ribosomal binding site, allowing bi-cistronic expression. In this configuration Xenopus laevis Aurora B is expressed by the first cassette, and the Xenopus laevis INCENP^790-847 is expressed by the second cassette. The resulting vector is pAUB-IN^847.
First of all the E. coli strain BL21 (DE3) is co-transformed with pUBS520 helper plasmid and pAUB-IN^847, after which protein expression is induced using 0.3 mM IPTG at an OD600 of 0.45-0.7. The expression is then continued for approx. 12-16 h at 23-25° C. with agitation.
The bacteria are then removed by centrifuging and the pellet is lysed in lysis buffer (50 mM Tris/Cl pH 7.6, 300 mM NaCl, 1 mM DTT, 1 mM EDTA, 5% glycerol, Roche Complete Protease Inhibitor tablets) using ultrasound, using 20-30 mL lysis buffer per liter of E. coli culture. The lysed material is freed from debris by centrifugation (12000 rpm, 45-60 min, JA20 rotor). The supernatant is incubated with 300 μL of equilibrated GST Sepharose Fast Flow (Amersham Biosciences) per liter of E. coli culture for 4-5 h at 4° C. Then the column material is washed with 30 volumes of lysis buffer and then equilibrated with 30 volumes of cleavage buffer (50 mM Tris/Cl pH 7.6, 150 mM NaCl, 1 mM DTT, 1 mM EDTA). To cleave the GST tag from Aurora B, 10 units of Prescission Protease (Amersham Biosciences) are used per milligram of substrate and the mixture is incubated for 16 h at 4° C. The supernatant which contains the cleavage product is loaded onto a 6 mL Resource Q column (Amersham Biosciences) equilibrated with ion exchange buffer (50 mM Tris/Cl pH 7.6, 150 mM NaCl, 1 mM DTT, 1 mM EDTA). The Aurora B/INCENP complex is caught as it flows through, then concentrated and loaded onto a Superdex 200 size exclusion chromatography (SEC) column equilibrated with SEC buffer (10 mM Tris/Cl pH 7.6, 150 mM NaCl, 1 mM DTT, 1 mM EDTA). Fractions which contain the AuroraB/INCENP complex are collected and concentrated using Vivaspin concentrators (molecular weight exclusion 3000-5000 Da) to a final concentration of 12 mg/mL. Aliquots (e.g. 240 ng/μL) for kinase assays are transferred from this stock solution into freezing buffer (50 mM Tris/Cl pH 8.0, 150 mM NaCl, 0.1 mM EDTA, 0.03% Brij-35, 10% glycerol, 1 mM DTT) and stored at −80° C.
Test substances are placed in a polypropylene dish (96 wells, Greiner #655 201), in order to cover a concentration frame of 10 μM-0.0001 μM. The final concentration of DMSO in the assay is 5%. 30 μL of protein mix (50 mM tris/Cl pH 7.5, 25 mM MgCl2, 25 mM NaCl, 167 μM ATP, 10 ng Xenopus laevis Aurora B/INCENP complex in freezing buffer) are pipetted into the 10 μl of test substance provided in 25% DMSO and this is incubated for 15 min at RT. Then 10 μL of peptide mix (100 mM tris/Cl pH 7.5, 50 mM MgCl2, 50 mM NaCl, 5 μM NaF, 5 μM DTT, 1 μCi gamma-P33-ATP [Amersham], 50 μM substrate peptide [biotin-[…] or multimers thereof, or biotin-[…] or multimers thereof, or biotin-[…]]) are added. The reaction is incubated for 75 min (ambient temperature) and stopped by the addition of 180 μL of 6.4% trichloroacetic acid and incubated for 20 min on ice. […]
`CC(C)Nc1ccc(-c2ccc3c(c2)NC(=O)/C3=C(\Nc2ccc(C(C)(C)C(=O)N3CC[C@H](N(C)C)C3)cc2)c2ccccc2)cn1` [Example 100] was tested, and the remaining activity at 1 µM was 3.36%.
Work on `CNc1ccc(-c2ccc3c(c2)NC(=O)/C3=C(\Nc2ccc(CN(C)C)cc2)c2ccccc2)cn1` [Example 8] yielded a remaining activity at 1 µM of 15.6%.
Work on `O=C(C#Cc1ccc2c(c1)NC(=O)/C2=C(\Nc1ccc(CN2CCCC2)cc1)c1ccccc1)NCCF` [Example 169] yielded a remaining activity at 1 µM of 1.71%.
`CN1CCN(c2ccc(N/C(=C3\C(=O)Nc4cc(C#CC(=O)NC5CCCC5)ccc43)c3ccccc3)cc2)CC1` [Example 164] gave a remaining activity at 1 µM of 3.17%.
Work on `CC(C)Nc1ccc(-c2ccc3c(c2)NC(=O)/C3=C(\Nc2ccc(C(=O)N(C)C3CCN(C)CC3)cc2)c2ccccc2)cn1` [Example 139] yielded a remaining activity at 1 µM of 0.88%.
In the case of `CN(C)Cc1ccc(N/C(=C2\C(=O)Nc3cc(-c4cnc(NCC5CC5)cn4)ccc32)c2ccccc2)cc1` [Example 2], the remaining activity at 1 µM is reported as 12.6%.
`CN(C)Cc1ccc(N/C(=C2\C(=O)Nc3cc(-c4cccc(C(N)=O)c4)ccc32)c2ccccc2)cc1` [Example 68] showed a remaining activity at 1 µM of 18.1%.
Work on `COc1cc(N/C(=C2\C(=O)Nc3cc(-c4ccc(NC(C)C)nc4)ccc32)c2ccccc2)ccc1C(=O)N1CC[C@H](N(C)C)C1` [Example 110] yielded a remaining activity at 1 µM of 1.54%.
Compound `CC(C)Nc1ccc(-c2ccc3c(c2)NC(=O)/C3=C(\Nc2ccc(C(=O)N3CCC[C@@H]3CN3CCCC3)cc2)c2ccccc2)cn1` [Example 130] has a remaining activity at 1 µM of 1.43%.
Compound `CN(C)Cc1ccc(N/C(=C2\C(=O)Nc3cc(-c4cccc(-n5cccn5)c4)ccc32)c2ccccc2)cc1` [Example 64] has a remaining activity at 1 µM of 13.4%.
`CC(C)Nc1ccc(-c2ccc3c(c2)NC(=O)/C3=C(\Nc2ccc(C(=O)N3CC[C@H](N(C)C)C3)cc2)c2ccccc2)cn1` [Example 136] gave a remaining activity at 1 µM of 0.48%.
`CCN1CCN(C(=O)c2ccc(N/C(=C3\C(=O)Nc4cc(-c5ccc(NC(C)C)nc5)ccc43)c3ccccc3)cc2)CC1` [Example 113] gave a remaining activity at 1 µM of 4.25%.
With `CC(C)Nc1ncc(-c2ccc3c(c2)NC(=O)/C3=C(\Nc2ccc(OCCCN(C)C)cc2)c2ccccc2)cn1` [Example 89] the remaining activity at 1 µM was 5.97%.
For `CCNc1ccc(-c2ccc3c(c2)NC(=O)/C3=C(\Nc2ccc(CN(C)C)cc2)c2ccccc2)cn1` [Example 5], the remaining activity at 1 µM was 7.08%.
Work on `CC(C)NC(=O)C#Cc1cc2c(cc1S(=O)(=O)N1CC(F)(F)C1)/C(=C(/Nc1ccc(N3CCN(C)CC3)cc1)c1ccccc1)C(=O)N2` [Example 156] yielded a remaining activity at 1 µM of 3.02%.
`COc1cc(N/C(=C2\C(=O)Nc3cc(-c4cnc(NC(C)C)nc4)ccc32)c2ccccc2)ccc1C(=O)O` [Example 80] showed a remaining activity at 1 µM of 2.32%.
`CCN1CCC2(CCN(C(=O)c3ccc(N/C(=C4\C(=O)Nc5cc(-c6ccc(NC(C)C)nc6)ccc54)c4ccccc4)cc3OC)C2)C1` (stereo not shown) [Example 104] gave a remaining activity at 1 µM of 1.71%.
Work on `CC(C)Nc1ccc(-c2ccc3c(c2)NC(=O)/C3=C(\Nc2ccc(C(=O)N3CCC(N4CCCC4)CC3)cc2)c2ccccc2)cn1` [Example 122] yielded a remaining activity at 1 µM of 4%.
Work on `CN(C)Cc1ccc(N/C(=C2\C(=O)Nc3cc(-c4cnc(NC5CCC5)nc4)ccc32)c2ccccc2)cc1` [Example 45] yielded a remaining activity at 1 µM of 1.76%.
Work on `COc1cc(N/C(=C2\C(=O)Nc3cc(-c4ccc(NC(C)C)nc4)ccc32)c2ccccc2)ccc1C(=O)N(C)C1CCN(C)CC1` [Example 112] yielded a remaining activity at 1 µM of 1.7%.
`CN(C)Cc1ccc(N/C(=C2\C(=O)Nc3cc(-c4cnc(N5CCCC5)nc4)ccc32)c2ccccc2)cc1` [Example 10] showed a remaining activity at 1 µM of 10.6%.
`CN(C)Cc1ccc(N/C(=C2\C(=O)Nc3cc(-c4ccc(OCC5CC5)nc4)ccc32)c2ccccc2)cc1` [Example 15] showed a remaining activity at 1 µM of 22%.
With `COC(=O)C(C)(C)c1ccc(N/C(=C2\C(=O)Nc3cc(-c4cnc(NC(C)C)nc4)ccc32)c2ccccc2)cc1` [Example 82] the remaining activity at 1 µM was 5.13%.
`CC(C)Nc1ccc(-c2ccc3c(c2)NC(=O)/C3=C(\Nc2ccc(C(=O)N3CCN(CC4CC4)CC3)cc2)c2ccccc2)cn1` [Example 118] gave a remaining activity at 1 µM of 4.44%.
For `Cc1ccc(-c2ccc3c(c2)NC(=O)/C3=C(\Nc2ccc(CN(C)C)cc2)c2ccccc2)cn1` [Example 17], the remaining activity at 1 µM was 21.1%.
With `CCNC(=O)C#Cc1ccc2c(c1)NC(=O)/C2=C(\Nc1ccc(CN(C)C)c(F)c1)c1ccccc1` [Example 176] the remaining activity at 1 µM was 1.65%.
For `CC(C)Nc1ccc(-c2ccc3c(c2)NC(=O)/C3=C(\Nc2ccc(C(=O)N(C)CCN(C)C)cc2)c2ccccc2)cn1` [Example 138], the remaining activity at 1 µM was 0.68%.
`CC(=O)Nc1cccc(-c2ccc3c(c2)NC(=O)/C3=C(\Nc2ccc(CN(C)C)cc2)c2ccccc2)c1` [Example 69] was tested, and the remaining activity at 1 µM was 17.2%.
`COc1cc(N/C(=C2\C(=O)Nc3cc(-c4ccc(NC(C)C)nc4)ccc32)c2ccccc2)ccc1C(=O)N1CCC(N(C)C)CC1` [Example 107] showed a remaining activity at 1 µM of 1.66%.
Compound `CC(C)Nc1ncc(-c2ccc3c(c2)NC(=O)/C3=C(\Nc2ccc(N3CCN(C)CC3)cc2)c2ccccc2)cn1` [Example 92] has a remaining activity at 1 µM of 3.85%.
Compound `CC(C)Nc1ccc(-c2ccc3c(c2)NC(=O)/C3=C(\Nc2ccc(C(=O)N3C[C@H]4C[C@@H]3CN4C)cc2)c2ccccc2)cn1` [Example 131] has a remaining activity at 1 µM of 5.48%.
Compound `CC(C)Nc1ncc(-c2ccc3c(c2)NC(=O)/C3=C(\NC2CCN(C)CC2)c2ccccc2)cn1` [Example 79] has a remaining activity at 1 µM of 103%.
For `CC(C)Nc1ncc(-c2ccc3c(c2)NC(=O)/C3=C(\Nc2ccc(N3CCN(C)CC3)nc2)c2ccccc2)cn1` [Example 86], the remaining activity at 1 µM was 16.8%.
`CN(C)Cc1ccc(N/C(=C2\C(=O)Nc3cc(-c4ccc(N5CCOCC5)nc4)ccc32)c2ccccc2)cc1` [Example 14] gave a remaining activity at 1 µM of 20.7%.
Work on `CN(C)Cc1ccc(N/C(=C2\C(=O)Nc3cc(-c4cnc(C(=O)O)nc4)ccc32)c2ccccc2)cc1` [Example 42] yielded a remaining activity at 1 µM of 139%.
Work on `CC(C)Nc1ccc(-c2ccc3c(c2)NC(=O)/C3=C(\Nc2ccc(C(=O)N3CCC[C@H]3CN3CCCC3)cc2)c2ccccc2)cn1` [Example 127] yielded a remaining activity at 1 µM of 4.67%.
In the case of `COc1cc(N/C(=C2\C(=O)Nc3cc(-c4ccc(NC(C)C)nc4)ccc32)c2ccccc2)ccc1C(=O)N1CCN(C(C)C)CC1` [Example 106], the remaining activity at 1 µM is reported as 2.94%.
`CN(C)Cc1ccc(N/C(=C2\C(=O)Nc3cc(-c4cnc(NCC5CC5)nc4)ccc32)c2ccccc2)cc1` [Example 51] showed a remaining activity at 1 µM of 3.84%.
`CC(C)Nc1ccc(-c2ccc3c(c2)NC(=O)/C3=C(\Nc2ccc(C(C)(C)C(=O)N(C)C3CCN(C)CC3)cc2)c2ccccc2)cn1` [Example 103] gave a remaining activity at 1 µM of 3.84%.
With `CN(C)Cc1ccc(N/C(=C2\C(=O)Nc3cc(-c4cccc(C#N)c4)ccc32)c2ccccc2)cc1` [Example 39] the remaining activity at 1 µM was 30.9%.
In the case of `O=C(C#Cc1ccc2c(c1)NC(=O)/C2=C(\Nc1ccc(CN2CCCC2)cc1)c1ccccc1)Nc1ccccc1` [Example 174], the remaining activity at 1 µM is reported as 2.67%.
In the case of `CCNC(=O)C#Cc1ccc2c(c1)NC(=O)/C2=C(\Nc1ccc(CN(C)C)c(Cl)c1)c1ccccc1` [Example 177], the remaining activity at 1 µM is reported as 1.83%.
`CC(C)Nc1ncc(-c2ccc3c(c2)NC(=O)/C3=C(\Nc2ccc(C(=O)O)cc2)c2ccccc2)cn1` [Example 83] gave a remaining activity at 1 µM of 1.04%.
